Experimental data reported in patent US12595250B2, “Substituted pyrimidine compounds as multifunctional radical quenchers and their uses” (ARIZONA BOARD OF REGENTS ON BEHALF OF ARIZONA STATE …, priority 2016, dated 2026).

What was measured:
[1] = In vitro microsomal stability assay; type: in vitro ADME; details: pH 7.4, bovine liver microsomes 1 mg/mL, 25 μM compound, 37° C., NADPH, read-out: Recovery (%) of compound after reaction with activated microsomes
Experimental: Liver tissues were diced into small pieces and then washed with isotonic sucrose buffer (0.25 M sucrose, 10 mM Tris-HCl, 0.5 mM EDTA, pH 7.8). The diced tissue was passed through a precooled meat grinder and mixed with three-fold ice cold sucrose buffer supplemented with a mixture of protease inhibitors. The suspension was homogenized in a Waring blender for 25 s at high speed. At this stage, the pH of the suspension was adjusted to 7.4 with 1 M Tris base. The homogenate was centrifuged for 20 min at 1200×g to remove cell debris. The supernatant suspension was homogenized in a tight fitting Teflon-glass Potter-Elvehjem homogenizer and then centrifuged twice at 10,000×g for 20 min, collecting the supernatant each time to remove mitochondria. The floating fat layer was carefully removed by filtering the supernatant through layers of cheesecloth. The supernatant was centrifuged at 150,000×g for 30 min (Beckman-Coulter ultracentrifuge, XL-100K-01, SW 55 Ti rotor). The pellet (microsomal fraction) was suspended in 0.25 M sucrose buffer containing 10 mM Tris-HCl, pH 7.4, with 20% (v/v) glycerol, and centrifuged once more at 150,000×g. The pellet was resuspended in sucrose buffer with 20% (v/v) glycerol. The protein concentration after resuspension was approximately 20 mg/mL, as determined by BCA protein assay (Pierce Chemical) using bovine serum albumin as a standard. Aliquots of microsomal suspensions were stored at −80° C.
In vitro metabolic stability was determined in bovine liver microsomes at a protein concentration of 1 mg/mL in 50 mM phosphate buffer mixture, pH 7.4, containing 5 mM MgCl2 in a final incubation volume of 0.5 mL. Each test compound was added to a final concentration of 25 μM. This mixture was pre-warmed to 37° C. prior to starting the reaction by the addition of β-NADPH to 1 mM final concentration. After incubation for 30 min at 37° C., the reaction was quenched by the addition of 1 mL of propanol, vortexed for 2 min and centrifuged at 15,000×g for 10 min to pellet the precipitated protein. The resulting supernatant was pipetted out and then concentrated under diminished pressure. A parallel incubation of the test compound with deactivated microsomes (quenched immediately with propanol) lacking β-NADPH served as a control and was run for each test agent to detect microsome-independent degradation. The sample was reconstituted in 130 μL MeOH and centrifuged again at 15,000×g for 3 min. The supernatant was removed and 4 μM fluorene was added as an internal standard before HPLC analysis. HPLC analyses were performed on a Zorbax SB-Phenyl reversed phase analytical (150×4.6 mm, 5 m) HPLC column using a mobile phase consisting of MeOH/H2O. A linear gradient of (50:50 MeOH/H2O→100:0 MeOH/H2O) was employed over a period of 14 min at a flow rate of 1 mL/min. Metabolic stability was expressed as percent of control remaining. The experiments were carried out in duplicate to verify the results.

FRDA lymphocytes [2] = assay: Cellular ATP concentration assay (luciferin-luciferase); type: cell-based, Human; details: for activity at 1 µM / activity at 5 µM / activity at 20 µM: Homo sapiens, Lymphocyte, incubation 48 h, read-out: Total ATP level (% control) FRDA lymphocytes
FRDA lymphocytes [3] = assay: Lipid peroxidation assay (C11-BODIPY 581/591, FACS); type: cell-based, Human; details: 5 mM DEM; for Suppression of lipid peroxidation, comparison of regioisomers (in words, FIG. 2): 0.1 μM (low concentration)
Experimental: The bar graph represents the percentage of the median mean fluorescence intensity of C11-BODIPY-green fluorescence relative to a treated control is shown. Data are expressed as the mean±SEM (n=3).
Human mitochondrial disease cell lines, Friedreich's ataxia lymphocytes (GM15850), and Leigh's syndrome lymphocytes (GM13740) were obtained from Coriell Cell Repositories (Camden, NJ). Lymphocytes were cultured in RPMI-1640 medium (Gibco, Life Technologies, Grand Island, NY) with 15% fetal calf serum, 2 mM glutamine (HyClone, South Logan, UT) and 1% penicillin-streptomycin antibiotic supplement (Cellgro, Manassas, VA). Cells were passaged every other day to maintain them in log phase growth and kept at a nominal concentration of 5-10×10^5 cell/mL. A CoQ10 deficient lymphocyte cell line (GM17932) was obtained from Coriell Cell Repositories. […]
Lipid peroxidation was measured by a quantitative FACS assay using the oxidation-sensitive fatty acid probe C11-BODIPY^581/591 (Molecular Probe) as described in art (Goldschmidt, R., et al. Bioorg. Med. Chem. 2013, 21, 969; Khdour, 0. M., et al. ACS Med. Chem. Lett. 2013, 4, 724; and Arce, P. M., et al. Bioorg. Med. Chem. 2012, 20, 5188). […] Cells were resuspended in phosphate buffered saline and were analyzed immediately by FACS (C6 Accuri, BD Biosciences, San Jose, CA), using a 488 nm excitation laser and the FL1-H channel 530±15 nm emission filter. The generation of lipid peroxide was detected as a result of the oxidation of the polyunsaturated butadienyl portion of the dye, resulting in a shift of the fluorescence emission peak from red to green. In each analysis, 10,000 events were recorded after cell debris were electronically gated out. […] Results were expressed as a percentage of the median mean fluorescence intensity of C11-BODIPY-green relative to the treated control (DEM).

FRDA lymphocytes [4] = assay: Reactive oxygen species (ROS) assay (DCFH-DA, FACS); type: cell-based, Human; details: high concentration, 5 mM DEM
Experimental: The cells were stained with 2, 7-dichlorodihydrofluorescein diacetate (DCFH-DA) for 15 minutes prior to analysis. The samples were analyzed immediately by flow cytometry (C6 Accuri, BD Biosciences, San Jose, CA). The bar graph represents the percentage of the median mean fluorescence intensity of DCF fluorescence relative to a DEM-treated control. Data shown represent the mean±SEM of two different experiments run as duplicates.
Human mitochondrial disease cell lines, Friedreich's ataxia lymphocytes (GM15850), and Leigh's syndrome lymphocytes (GM13740) were obtained from Coriell Cell Repositories (Camden, NJ). […]
Quantitative analysis of intracellular ROS levels in FRDA lymphocytes, challenged with 5 mM diethyl maleate (DEM) in presence or absence of the test compounds, was obtained by FACS analysis using a dichlorodihydrofluorescein diacetate probe (DCFH-DA), as described in art (Goldschmidt, R., et al. Bioorg. Med Chem. 2013, 21, 969; Arce, P. M., et al. Bioorg. Med Chem. 2012, 20, 5188; Arce, P. M., et al. ACS Med Chem. Lett. 2011, 2, 608; Khdour, O. M., et al. Pharm. Res. 2011, 28, 2896; Lu, J., et al. Bioorg. Med Chem. 2010, 18, 7628; and Cai, X., et al. Bioorg. Med Chem. 2012, 20, 3584). […] The samples were analyzed immediately by flow cytometry (C6 Accuri, BD Biosciences, San Jose, CA), using a 488 nm excitation laser and the FL1-H channel 530±15 nm emission filter. […]

Structure (SMILES) | recovery at 30 min, 25 μM [1] [%] | Inhibition of ATP production (in words) (FRDA lymphocytes [2]; 20 μM) | activity at 1 µM (FRDA lymphocytes [2]) [%] | activity at 5 µM (FRDA lymphocytes [2]) [%] | activity at 20 µM (FRDA lymphocytes [2]; 20 μM) [%] | Suppression of lipid peroxidation, comparison of regioisomers (in words, FIG. 2) (FRDA lymphocytes [3]) | Suppression of lipid peroxidation (in words, FIG. 2) (FRDA lymphocytes [3]; high concentration) | Suppression of ROS (in words, FIG. 3) (FRDA lymphocytes [4])
CCCCCCCCCCCCCCCCc1nc(OC2CCC2)nc(N2CCC2)c1O [Compound 2c, 4-(Azetidin-1-yl)-2-cyclobutanoxy-6-hexadecylpyrimidin-5-ol] | 63 ± 9 |  | 102 ± 2 | 110 ± 4 | 99 ± 2 | better than 1c |  | 
Cc1nc(N2CCC2)nc(OC2CCC2)c1O [Compound 1a, 2-(Azetidin-1-yl)-4-cyclobutanoxy-6-methylpyrimidin-5-ol] |  |  | 100 ± 1 | 98 ± 1 | 96 ± 2 |  |  | 
CCCCCCCCCCCCCCc1nc(N2CCC2)nc(OC2CCC2)c1O [Compound 1b, 2-(Azetidin-1-yl)-4-cyclobutanoxy-6-tetradecylpyrimidin-5-ol] | 63 ± 8 |  | 105 ± 3 | 102 ± 1 | 94 ± 2 |  |  | 
CCCCCCCCCCCCCCc1nc(OC2CCC2)nc(N2CCC2)c1O [Compound 2b, 4-(Azetidin-1-yl)-2-cyclobutanoxy-6-tetradecylpyrimidin-5-ol] | 77 |  | 109 ± 3 | 105 ± 2 | 54 ± 6 | significantly more efficient than 1b |  | 
CCCCCCCCCCCCCCCCc1nc(N2CCC2)nc(OC2CCC2)c1O [Compound 1c, 2-(Azetidin-1-yl)-4-cyclobutoxy-6-hexadecylpyrimidin-5-ol] | 65 ± 8 |  | 100 ± 1 | 114 ± 3 | 103 ± 2 |  |  | 
Cc1nc(OC2CCC2)nc(N2CCC2)c1O [Compound 2a, 4-(Azetidin-1-yl)-2-cyclobutanoxy-6-methylpyrimidin-5-ol] |  |  | 101 ± 1 | 99 ± 3 | 96 ± 3 |  |  | 
CCCCCCCCCCCCCCCCc1nc(OC2CCC2)nc(OC2CCC2)c1O [Compound 3c, 2,4-Dicyclobutanoxy-6-hexadecylpyrimidin-5-ol] | 60 ± 5 |  | 98 ± 2 | 102 ± 2 | 96 ± 2 |  |  | 
Cc1nc(OC2CCC2)nc(OC2CCC2)c1O [Compound 3a, 2,4-Dicyclobutanoxy-6-methylpyrimidin-5-ol] |  |  | 101 ± 1 | 99 ± 2 | 97 ± 3 |  |  | 
CCCCCCCCCCCCCCc1nc(OC2CCC2)nc(OC2CCC2)c1O [Compound 3b, 2,4-Dicyclobutanoxy-6-tetradecylpyrimidin-5-ol] | 72 ± 3 |  | 99 ± 1 | 98 ± 2 | 94 ± 2 |  | slightly efficient | appeared to be efficient

Second part, led by results:

recovery at 30 min, 25 μM [1] [%] | Inhibition of ATP production (in words) (FRDA lymphocytes [2]; 20 μM) | Structure (SMILES) | activity at 1 µM (FRDA lymphocytes [2]) [%] | activity at 5 µM (FRDA lymphocytes [2]) [%] | activity at 20 µM (FRDA lymphocytes [2]; 20 μM) [%] | Suppression of lipid peroxidation, comparison of regioisomers (in words, FIG. 2) (FRDA lymphocytes [3]) | Suppression of lipid peroxidation (in words, FIG. 2) (FRDA lymphocytes [3]; high concentration) | Suppression of ROS (in words, FIG. 3) (FRDA lymphocytes [4])
63 ± 5 |  | CCCCCCCCCCCCCCc1nc(N2CCC2)nc(N2CCC2)c1O [Compound 4b, 2,4-Di-(azetidin-1-yl)-6-tetradecylpyrimidin-5-ol] | 86 ± 3 | 46 ± 7 | 1 |  |  | 
62 ± 3 |  | CCCCCCCCCCCCCCCCc1nc(N2CCC2)nc(N2CCC2)c1O [Compound 4c, 2,4-Di-(Azetidin-1-yl)-6-hexadecylpyrimidin-5-ol] | 92 ± 1 | 61 ± 9 | 1 ± 2 |  |  | 
 | this effect seems less obvious | Cc1nc(N2CCC2)nc(N2CCC2)c1O [Compound 4a, 2,4-Di-(azetidin-1-yl)-6-methylpyrimidin-5-ol] | 101 ± 2 | 101 ± 2 | 85 ± 9 |  |  | 
